These results are taken from ChEMBL document CHEMBL1136486, “Novel 3,4-dihydroquinolin-2(1H)-one inhibitors of human glycogen phosphorylase a” (Bioorg Med Chem Lett, 2003).

Where only a bound is given, the exact number is not on record here.

For experiment [1], the target named is T1, Glycogen phosphorylase, liver form (Homo sapiens, UniProt P06737).
T1 sequence (P06737 whole entry): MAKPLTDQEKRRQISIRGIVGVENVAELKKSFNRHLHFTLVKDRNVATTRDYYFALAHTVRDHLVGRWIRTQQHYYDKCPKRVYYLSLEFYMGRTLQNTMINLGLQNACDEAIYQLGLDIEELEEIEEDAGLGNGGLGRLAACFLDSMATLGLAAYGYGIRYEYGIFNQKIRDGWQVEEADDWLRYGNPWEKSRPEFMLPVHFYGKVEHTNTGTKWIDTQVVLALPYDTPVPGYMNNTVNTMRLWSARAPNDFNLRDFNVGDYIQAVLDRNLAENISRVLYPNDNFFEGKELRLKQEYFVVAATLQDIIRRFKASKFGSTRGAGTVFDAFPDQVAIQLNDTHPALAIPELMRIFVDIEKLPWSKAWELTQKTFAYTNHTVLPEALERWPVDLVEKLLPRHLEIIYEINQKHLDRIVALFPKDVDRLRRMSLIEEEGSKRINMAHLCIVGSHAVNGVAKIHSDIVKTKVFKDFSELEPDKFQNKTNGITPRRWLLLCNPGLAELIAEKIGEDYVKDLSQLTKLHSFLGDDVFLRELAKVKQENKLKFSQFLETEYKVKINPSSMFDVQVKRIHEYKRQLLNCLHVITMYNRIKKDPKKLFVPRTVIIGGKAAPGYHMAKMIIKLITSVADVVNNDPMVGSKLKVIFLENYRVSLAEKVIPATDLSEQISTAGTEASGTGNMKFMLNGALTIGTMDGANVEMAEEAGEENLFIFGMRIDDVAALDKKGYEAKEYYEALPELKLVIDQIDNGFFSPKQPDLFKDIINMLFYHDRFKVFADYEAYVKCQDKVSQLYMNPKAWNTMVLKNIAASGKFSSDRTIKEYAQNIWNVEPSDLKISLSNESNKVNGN
In words: Inhibitory concentration against recombinant human liver glycogen phosphorylase a (HLGPa).

Experiment [2] concerns the target T2, Glycogen phosphorylase, muscle form (Homo sapiens, UniProt P11217).
T2 sequence (P11217 whole entry): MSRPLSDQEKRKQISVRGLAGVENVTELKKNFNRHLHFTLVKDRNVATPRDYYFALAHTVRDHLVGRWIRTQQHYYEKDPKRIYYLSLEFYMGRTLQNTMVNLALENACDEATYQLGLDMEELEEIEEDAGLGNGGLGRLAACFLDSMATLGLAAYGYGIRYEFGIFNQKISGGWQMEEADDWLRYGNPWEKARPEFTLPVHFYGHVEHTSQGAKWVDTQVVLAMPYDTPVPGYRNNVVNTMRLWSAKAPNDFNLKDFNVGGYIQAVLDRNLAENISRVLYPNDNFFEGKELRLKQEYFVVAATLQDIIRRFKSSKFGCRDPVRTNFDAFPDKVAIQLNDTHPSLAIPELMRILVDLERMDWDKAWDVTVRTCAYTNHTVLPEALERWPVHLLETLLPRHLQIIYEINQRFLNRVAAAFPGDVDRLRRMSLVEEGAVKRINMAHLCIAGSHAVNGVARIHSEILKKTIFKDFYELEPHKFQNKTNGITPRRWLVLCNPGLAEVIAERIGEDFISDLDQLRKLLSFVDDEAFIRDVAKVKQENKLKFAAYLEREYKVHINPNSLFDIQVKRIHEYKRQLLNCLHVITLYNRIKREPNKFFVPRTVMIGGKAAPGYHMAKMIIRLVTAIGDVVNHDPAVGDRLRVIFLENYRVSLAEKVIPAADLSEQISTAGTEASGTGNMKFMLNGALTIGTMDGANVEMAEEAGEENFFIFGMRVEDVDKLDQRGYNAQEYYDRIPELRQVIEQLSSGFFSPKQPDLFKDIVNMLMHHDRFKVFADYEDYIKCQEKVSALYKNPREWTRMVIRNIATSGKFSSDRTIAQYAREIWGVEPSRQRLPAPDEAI
In words: Inhibitory concentration against recombinant human muscle glycogen phosphorylase a (HMGPa). In kind it is single protein.

Another experiment is filed under the species Rattus norvegicus. In words: Inhibition of glucose production in glucagon-stimulated glycogenolysis in primary rat hepatocytes. The experiment is classed as functional. The note with it: Hepatocyte.

By IC50 is commonly meant the concentration needed to halve the response being measured. One may read the EC50 as the concentration at which the effect is half-maximal. Lower therefore signals higher potency in that assay.

On to `CN1C(=O)C(NC(=O)c2cc3cc(Br)ccc3[nH]2)Cc2ccccc21` (configuration not stated), for which the concentration for half-maximal inhibition (IC50) in experiment [1] was 30 nM; in experiment [2] it was 73 nM.
Consider `O=C(N[C@H]1Cc2ccccc2NC1=O)c1cc2cc(Cl)ccc2[nH]1`, for which the 50% inhibitory concentration (IC50) in experiment [1] was found to be 47 nM; in experiment [2] it was 39 nM. The compound further registered an EC50 in the experiment filed under Rattus norvegicus of 7.8 µM.
The matching figures for `CN1C(=O)[C@H](NC(=O)c2cc3cc(Cl)ccc3[nH]2)Cc2ccccc21`: 61 nM, 58 nM and 13.2 µM.
`COC(=O)c1ccc2[nH]c(C(=O)NC3Cc4ccccc4N(C)C3=O)cc2c1` (configuration not stated): the half-maximal inhibitory concentration (IC50) is 5300 nM in experiment [1] and 2700 nM in experiment [2].
For the compound `CN1C(=O)C(NC(=O)c2cc3ccccc3[nH]2)Cc2ccccc21` (configuration not stated), the IC50 was 160 nM in experiment [1] and 56 nM in experiment [2].
For `COc1ccc2[nH]c(C(=O)NC3Cc4ccccc4N(C)C3=O)cc2c1` (configuration not stated), the IC50 in experiment [1] and in experiment [2] was 1700 nM in each case.
In the case of `CN1C(=O)C(NC(=O)c2cc3cccc(N)c3[nH]2)Cc2ccccc21` (configuration not stated), the figures for the 50% inhibitory concentration (IC50) in experiment [1] and in experiment [2] were 1200 nM and 6800 nM, respectively.
On to `O=C(N[C@@H]1Cc2ccccc2N(Cc2ccccn2)C1=O)c1cc2cc(Cl)ccc2[nH]1`, for which the IC50 in experiment [1] was 120 nM. This compound gave an EC50 in the experiment filed under Rattus norvegicus of 14.5 µM.
On to `Cc1ccc2[nH]c(C(=O)NC3Cc4ccccc4N(C)C3=O)cc2c1` (configuration not stated), for which the IC50 came out at 120 nM in experiment [1] and 98 nM in experiment [2].
In the same order, the values of `CN1C(=O)C(NC(=O)c2cc3cc(F)ccc3[nH]2)Cc2ccccc21` (configuration not stated) are 120 nM and 89 nM.
In the case of `COC(=O)c1cc2[nH]c(C(=O)NC3Cc4ccccc4N(C)C3=O)cc2cc1Cl` (configuration not stated), the half-inhibitory concentration (IC50) in experiment [1] and in experiment [2] was greater than 20000 nM each time.
In the case of `CN1C(=O)C(NC(=O)c2cc3cc(-c4ccccc4)ccc3[nH]2)Cc2ccccc21` (configuration not stated), the IC50 in experiment [1] and in experiment [2] was greater than 20000 nM in each case.
On to `CN1C(=O)C(NC(=O)c2cc3cc(C#N)ccc3[nH]2)Cc2ccccc21` (configuration not stated), for which the 50% inhibitory concentration (IC50) in experiment [1] was 180 nM; in experiment [2], 110 nM.
Take `O=C(N[C@H]1Cc2ccccc2N(Cc2ccccn2)C1=O)c1cc2cc(Cl)ccc2[nH]1`: the concentration for half-maximal inhibition (IC50) in experiment [1] worked out at 140 nM. A half-maximal response in the experiment filed under Rattus norvegicus (EC50) required 11.6 µM.
Turning to `CCc1ccc2[nH]c(C(=O)NC3Cc4ccccc4N(C)C3=O)cc2c1` (configuration not stated), the IC50 was 2500 nM in experiment [1] and 850 nM in experiment [2].
The matching figures for `CN1C(=O)C(NC(=O)c2cc3cccc([N+](=O)[O-])c3[nH]2)Cc2ccccc21` (configuration not stated): 300 nM and 120 nM.
For the compound `O=C(N[C@@H]1Cc2ccccc2NC1=O)c1cc2cc(Cl)ccc2[nH]1`, the concentration for half-maximal inhibition (IC50) in experiment [1] came out at 25 nM; in experiment [2], 14 nM. The same compound showed an EC50 in the experiment filed under Rattus norvegicus of 1.8 µM.
On to `O=C(NC1Cc2ccccc2NC1=O)c1ccc(Cl)c(Cl)c1` (configuration not stated), for which the IC50 in experiment [1] came out at 1370 nM; in experiment [2], 2310 nM.
Regarding `CN1C(=O)C(NC(=O)c2cc3ccc(-c4ccccc4)cc3[nH]2)Cc2ccccc21` (configuration not stated), the IC50 in experiment [1] and in experiment [2] was greater than 20000 nM in each case.
As for `CN1C(=O)[C@@H](NC(=O)c2cc3cc(Cl)ccc3[nH]2)Cc2ccccc21`, the half-inhibitory concentration (IC50) in experiment [1] and in experiment [2] was 57 nM each time. Further, the concentration giving a half-maximal response (EC50) in the experiment filed under Rattus norvegicus worked out at 8.4 µM.
As to `CN1C(=O)C(NC(=O)c2cc3cc(C(F)(F)F)ccc3[nH]2)Cc2ccccc21` (configuration not stated), the results for the concentration for half-maximal inhibition (IC50) in experiment [1] and in experiment [2] were 1500 nM and 550 nM, respectively.
With `CN1C(=O)C(NC(=O)c2cc3cc(Cl)ccc3[nH]2)CCc2ccccc21` (configuration not stated), the IC50 was determined as 305 nM in experiment [1] and 105 nM in experiment [2].
Consider `COC(=O)c1c(Cl)ccc2[nH]c(C(=O)NC3Cc4ccccc4N(C)C3=O)cc12` (configuration not stated), for which the half-inhibitory concentration (IC50) in experiment [1] and in experiment [2] was greater than 20000 nM in each case.
`O=C(NC1CCc2ccccc2NC1=O)c1cc2ccccc2[nH]1` (configuration not stated): the IC50 in experiment [1] was found to be 1060 nM; in experiment [2], 2440 nM.
In the same order, the values of `CN1C(=O)C(NC(=O)c2cc3cc(Cl)cc(F)c3[nH]2)Cc2ccccc21` (configuration not stated) are 83 nM and 55 nM.
In the same order, the values of `CN1C(=O)C(NC(=O)c2cc3c(Cl)cccc3[nH]2)Cc2ccccc21` (configuration not stated) are 1600 nM and 2100 nM.
In the case of `CN1C(=O)C(NC(=O)c2cc3ccc(Cl)cc3[nH]2)Cc2ccccc21` (configuration not stated), the 50% inhibitory concentration (IC50) in experiment [1] came to 99 nM; in experiment [2], 69 nM.
With `Cc1n[nH]c(CN2C(=O)C(NC(=O)c3cc4cc(Cl)ccc4[nH]3)Cc3ccccc32)n1` (racemic), in experiment [1], the half-inhibitory concentration (IC50) is 140 nM. In addition, in the experiment listed under Rattus norvegicus, the response was half-maximal at 1.2 µM (EC50).
`O=C(NC1Cc2ccccc2N(Cc2cccnc2)C1=O)c1cc2cc(Cl)ccc2[nH]1` (racemic): the IC50 in experiment [1] was 130 nM. Further, the concentration for a half-maximal effect (EC50) in the experiment listed under Rattus norvegicus is 16.6 µM.
As for `O=C(NC1Cc2ccccc2N(Cc2ccccn2)C1=O)c1cc2cc(Cl)ccc2[nH]1` (racemic), the IC50 in experiment [1] is 110 nM. For the same compound, the concentration for a half-maximal effect (EC50) in the experiment filed under Rattus norvegicus stood at 20.7 µM.
On to `O=C(NC1CCc2ccccc2NC1=O)c1ccc(Cl)c(Cl)c1` (racemic), for which the concentration for half-maximal inhibition (IC50) in experiment [1] was 6400 nM; in experiment [2], 21700 nM.
As for `O=C(NC1Cc2ccccc2NC1=O)c1cc2cc(Cl)ccc2[nH]1` (racemic), the concentration for half-maximal inhibition (IC50) in experiment [1] came to 44 nM; in experiment [2], 38 nM.
Turning to `CN1C(=O)C(NC(=O)c2cc3cc(Cl)ccc3[nH]2)Cc2ccccc21` (racemic), the IC50 in experiment [1] worked out at 25 nM; in experiment [2] it was 32 nM.
With `O=C(NC1Cc2ccccc2N(Cc2nnc(-c3ncc[nH]3)[nH]2)C1=O)c1cc2cc(Cl)ccc2[nH]1` (racemic), the half-inhibitory concentration (IC50) in experiment [1] turned out to be 160 nM. Further, the response in the experiment listed under Rattus norvegicus was half-maximal at 3.7 µM (EC50).
